Measured values taken from ChEMBL document CHEMBL6103658, “Designing Macrocyclic Kinase Inhibitors Using Macrocycle Scaffold Hopping with Reinforced Learning (Macro-Hop)” (J Med Chem, 2025).
Values belong to the compound of their own block, whether it stands above or below them.

What was measured:
[1] = Induction of cell cycle arrest in mouse BaF3 cells expressing PDGFR-alpha D842V mutant (unknown origin) assessed as accumulation at S phase at 1000 nM incubated for 24 hrs by PI staining based flow cytometry (reference value: 12.00 %); type: functional
[2] = Induction of cell cycle arrest in mouse BaF3 cells expressing PDGFR-alpha D842V mutant (unknown origin) assessed as accumulation at G2/M phase at 200 nM incubated for 24 hrs by PI staining based flow cytometry (reference value: 34.85 %); type: functional
[3] = Induction of apoptosis in mouse BaF3 cells expressing PDGFR-alpha D842V mutant (unknown origin) assessed as viable cells at 1000 nM incubated for 48 hrs by V-PE/7-AAD staining based flow cytometry (reference value: 92.28 %); type: functional; conditions: read-out: Activity
[4] = Induction of cell cycle arrest in mouse BaF3 cells expressing PDGFR-alpha D842V mutant (unknown origin) assessed as accumulation at S phase at 200 nM incubated for 24 hrs by PI staining based flow cytometry (reference value: 12.00 %); type: functional
[5] = Induction of apoptosis in mouse BaF3 cells expressing PDGFR-alpha D842V mutant (unknown origin) assessed as early apoptotic cells at 200 nM incubated for 48 hrs by V-PE/7-AAD staining based flow cytometry (reference value: 4.20 %); type: functional
cells [6] = conditions: Mus musculus, BaF3, 72 h
[7] = Inhibition of cell viability of HEK293T cells incubated for 72 hrs by CCK8 assay; type: toxicity, cell-based, HEK-293T; conditions: human
[8] = Induction of cell cycle arrest in mouse BaF3 cells expressing PDGFR-alpha D842V mutant (unknown origin) assessed as accumulation at G2/M phase at 1000 nM incubated for 24 hrs by PI staining based flow cytometry (reference value: 34.85 %); type: functional
[9] = Induction of apoptosis in mouse BaF3 cells expressing PDGFR-alpha D842V mutant (unknown origin) assessed as early apoptotic cells at 1000 nM incubated for 48 hrs by V-PE/7-AAD staining based flow cytometry (reference value: 4.20 %); type: functional
[10] = Induction of cell cycle arrest in mouse BaF3 cells expressing PDGFR-alpha D842V mutant (unknown origin) assessed as accumulation at G0/G1 phase at 40 nM incubated for 24 hrs by PI staining based flow cytometry (reference value: 51.77 %); type: functional
[11] = Induction of apoptosis in mouse BaF3 cells expressing PDGFR-alpha D842V mutant (unknown origin) assessed as necrotic cells at 1000 nM incubated for 48 hrs by V-PE/7-AAD staining based flow cytometry (reference value: 0.75 %); type: functional
[12] = Induction of cell cycle arrest in mouse BaF3 cells expressing PDGFR-alpha D842V mutant (unknown origin) assessed as accumulation at G0/G1 phase at 200 nM incubated for 24 hrs by PI staining based flow cytometry (reference value: 51.77 %); type: functional
[13] = Induction of apoptosis in mouse BaF3 cells expressing PDGFR-alpha D842V mutant (unknown origin) assessed as late apoptotic cells at 40 nM incubated for 48 hrs by V-PE/7-AAD staining based flow cytometry (reference value: 2.77 %); type: functional
[14] = Induction of apoptosis in mouse BaF3 cells expressing PDGFR-alpha D842V mutant (unknown origin) assessed as necrotic cells at 200 nM incubated for 48 hrs by V-PE/7-AAD staining based flow cytometry (reference value: 0.75 %); type: functional
[15] = Induction of cell cycle arrest in mouse BaF3 cells expressing PDGFR-alpha D842V mutant (unknown origin) assessed as accumulation at G2/M phase at 40 nM incubated for 24 hrs by PI staining based flow cytometry (reference value: 34.85 %); type: functional
[16] = Induction of apoptosis in mouse BaF3 cells expressing PDGFR-alpha D842V mutant (unknown origin) assessed as necrotic cells at 40 nM incubated for 48 hrs by V-PE/7-AAD staining based flow cytometry (reference value: 0.75 %); type: functional
[17] = Induction of cell cycle arrest in mouse BaF3 cells expressing PDGFR-alpha D842V mutant (unknown origin) assessed as accumulation at S phase at 40 nM incubated for 24 hrs by PI staining based flow cytometry (reference value: 12.00 %); type: functional
[18] = Induction of apoptosis in mouse BaF3 cells expressing PDGFR-alpha D842V mutant (unknown origin) assessed as early apoptotic cells at 40 nM incubated for 48 hrs by V-PE/7-AAD staining based flow cytometry (reference value: 4.20 %); type: functional
[19] = Induction of apoptosis in mouse BaF3 cells expressing PDGFR-alpha D842V mutant (unknown origin) assessed as late apoptotic cells at 200 nM incubated for 48 hrs by V-PE/7-AAD staining based flow cytometry (reference value: 2.77 %); type: functional
[20] = Induction of apoptosis in mouse BaF3 cells expressing PDGFR-alpha D842V mutant (unknown origin) assessed as viable cells at 200 nM incubated for 48 hrs by V-PE/7-AAD staining based flow cytometry (reference value: 92.28 %); type: functional; conditions: read-out: Activity
BaF3 = conditions: Mus musculus, dose <= 1000.0 nM
[21] = Induction of apoptosis in mouse BaF3 cells expressing PDGFR-alpha D842V mutant (unknown origin) assessed as viable cells at 40 nM incubated for 48 hrs by V-PE/7-AAD staining based flow cytometry (reference value: 92.28 %); type: functional; conditions: read-out: Activity
[22] = Induction of cell cycle arrest in mouse BaF3 cells expressing PDGFR-alpha D842V mutant (unknown origin) assessed as accumulation at G0/G1 phase at 1000 nM incubated for 24 hrs by PI staining based flow cytometry (reference value: 51.77 %); type: functional
cells [23] = conditions: Mus musculus, BaF3, 72 h; remark: listed apart in the source
[24] = Induction of apoptosis in mouse BaF3 cells expressing PDGFR-alpha D842V mutant (unknown origin) assessed as late apoptotic cells at 1000 nM incubated for 48 hrs by V-PE/7-AAD staining based flow cytometry (reference value: 2.77 %); type: functional
[25] = target: T1, Platelet-derived growth factor receptor alpha (Homo sapiens, UniProt P16234, D842V); experiment: Inhibition of PDGFR-alpha D842V mutant (unknown origin) expressed in mouse BaF3 cells; type: cell-based
[26] = target: T1, Platelet-derived growth factor receptor alpha; experiment: Inhibition of PDGFR-alpha D842V mutant (unknown origin) using Tyr 04 peptide as substrate incubated for 1 hr in presence of ATP by FRET-based Z'-Lyte assay

T1 sequence (P16234 24-1089 D842V limits assumed): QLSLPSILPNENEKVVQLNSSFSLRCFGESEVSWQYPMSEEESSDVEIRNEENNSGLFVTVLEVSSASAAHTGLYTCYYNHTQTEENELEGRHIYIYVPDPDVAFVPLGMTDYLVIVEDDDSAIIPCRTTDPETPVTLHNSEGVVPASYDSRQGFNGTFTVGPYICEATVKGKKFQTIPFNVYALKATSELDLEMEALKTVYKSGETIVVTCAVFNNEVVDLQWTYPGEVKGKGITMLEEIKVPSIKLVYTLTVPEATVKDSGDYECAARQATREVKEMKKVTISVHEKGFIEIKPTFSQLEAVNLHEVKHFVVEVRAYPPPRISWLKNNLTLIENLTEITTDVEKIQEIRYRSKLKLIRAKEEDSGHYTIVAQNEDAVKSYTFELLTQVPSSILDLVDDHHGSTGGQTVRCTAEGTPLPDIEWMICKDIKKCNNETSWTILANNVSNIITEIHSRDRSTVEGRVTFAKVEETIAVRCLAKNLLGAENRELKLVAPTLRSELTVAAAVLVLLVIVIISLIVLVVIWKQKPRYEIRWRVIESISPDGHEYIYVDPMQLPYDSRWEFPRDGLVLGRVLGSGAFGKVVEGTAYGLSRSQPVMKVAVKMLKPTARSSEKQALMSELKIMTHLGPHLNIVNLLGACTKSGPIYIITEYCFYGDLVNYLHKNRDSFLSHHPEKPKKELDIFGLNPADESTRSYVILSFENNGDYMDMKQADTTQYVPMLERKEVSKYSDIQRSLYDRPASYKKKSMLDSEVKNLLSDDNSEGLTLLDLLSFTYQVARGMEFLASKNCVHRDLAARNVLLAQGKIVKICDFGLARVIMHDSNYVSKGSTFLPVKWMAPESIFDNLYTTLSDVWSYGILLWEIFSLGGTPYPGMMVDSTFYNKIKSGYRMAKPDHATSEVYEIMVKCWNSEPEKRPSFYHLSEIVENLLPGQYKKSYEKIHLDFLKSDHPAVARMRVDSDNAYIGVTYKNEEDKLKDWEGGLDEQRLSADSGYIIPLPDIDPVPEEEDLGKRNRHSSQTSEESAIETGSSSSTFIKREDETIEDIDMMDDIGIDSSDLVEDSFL

IC50 (cells [6]): 64.1 nM | IC50 (cells [23]): 27.6 nM
SMILES: c1cc2c3nc(ccc3c1)-n1cnc3ccc(cc31)OCCNC1CCN2CC1
Activity [1]: 7.21% | Activity [2]: 31.42% | viability at 1 µM [3]: 68.8% | Activity [4]: 7.5% | Activity [5]: 8.22% | IC50 at 72 h [7]: 1050 nM | Activity [8]: 26.13% | Activity [9]: 24.41% | Activity [10]: 54.31% | Activity [11]: 0.07% | Activity [12]: 60.03% | Activity [13]: 2.23% | Activity [14]: 0.14% | Activity [15]: 34.25% | Activity [16]: 0.06% | Activity [17]: 9.94% | Activity [18]: 3.2% | Activity [19]: 2.27% | viability at 0.2 µM [20]: 89.4% | inhibition (BaF3): Not active; Less Pronounced As Compared To Avapritinib | viability at 0.04 µM [21]: 94.5% | Activity [22]: 65.32% | Activity [24]: 6.67%

IC50 [25]: > 1000 nM | IC50 [26]: > 10000 nM
SMILES: Clc1cnc2nc1N1CCC(CC1)NCCCOc1ccc3ncn-2c3c1

IC50 (cells [6]): 407 nM | IC50 (cells [23]): 23.7 nM
SMILES: CC1(COc2ccc3c(c2)ncn3-c2ccc3cccc(N4CCC(N)CC4)c3n2)COC1 [CRENOLANIB]
IC50 at 72 h [7]: 1680 nM
